From patent US20260217691A1, “FOXM1 INHIBITORS AND THEIR USE IN TREATING CANCERS” (THE BOARD OF TRUSTEES OF THE UNIVERSITY OF ILLINOIS, priority 2022, published 2026)

Key:
FOXM1 [1] = target: T1, FOXM1 (Homo sapiens, UniProt Q08050); experiment: Immunohistochemistry for nuclear FOXM1 in primary AML samples treated ex vivo; type: cell-based; parameters: Total protein samples obtain from treated cells were analyzed for FOXM1 protein levels via immunoblotting; endogenous in cells; host or cells: KG-1, HL-60, K562, THP-1 leukemia cell lines; conditions: primary AML samples (n=4), 24 h, 43% for DMSO, p=0.06
T1 sequence (Q08050 1-763): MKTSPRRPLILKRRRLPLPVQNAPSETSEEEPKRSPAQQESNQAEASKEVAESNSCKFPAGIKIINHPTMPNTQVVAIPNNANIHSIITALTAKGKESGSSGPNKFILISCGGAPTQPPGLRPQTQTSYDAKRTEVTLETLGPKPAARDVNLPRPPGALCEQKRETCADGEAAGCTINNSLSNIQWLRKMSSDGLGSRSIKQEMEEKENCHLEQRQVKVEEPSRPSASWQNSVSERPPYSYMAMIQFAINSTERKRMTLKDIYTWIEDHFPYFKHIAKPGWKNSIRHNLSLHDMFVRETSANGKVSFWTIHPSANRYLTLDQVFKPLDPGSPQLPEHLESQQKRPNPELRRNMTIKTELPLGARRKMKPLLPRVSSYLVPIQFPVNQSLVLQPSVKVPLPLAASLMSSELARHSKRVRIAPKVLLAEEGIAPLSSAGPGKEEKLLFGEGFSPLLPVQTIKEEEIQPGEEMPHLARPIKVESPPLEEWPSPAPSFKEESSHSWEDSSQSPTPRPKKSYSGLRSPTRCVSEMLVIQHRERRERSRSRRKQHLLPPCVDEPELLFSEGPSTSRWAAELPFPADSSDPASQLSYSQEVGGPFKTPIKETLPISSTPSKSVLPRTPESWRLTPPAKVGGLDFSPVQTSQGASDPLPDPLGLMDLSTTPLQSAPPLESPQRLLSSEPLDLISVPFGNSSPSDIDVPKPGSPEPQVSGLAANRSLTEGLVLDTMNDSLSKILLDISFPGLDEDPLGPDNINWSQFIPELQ
Experimental: FIGS. 13A-13H STL001 is a novel FOXM1 inhibitor that sensitizes leukemia cells to standard cytotoxic and bcl2 inhibitor therapies. FIG. 13A AML cell line KG-1 treated with precursor compound STL427944. FIG. 3B AML cell lines KG-1, HL-60, and K562 were treated with increasing concentrations of STL001 for 24 h. Total protein samples obtained from treated cells were analyzed for FOXM1 protein levels using immunoblotting; β-actin was used as the internal loading control. FIG. 13C KG-1, HL-60, and K562 cells were treated with indicated concentrations of venetoclax and STL001 alone or in combination for 24 h. FIG. 13D KG-1, HL-60, and K562 cells were treated with indicated concentrations of cytarabine and STL001 alone or in combination for 24 h. […] Total protein samples obtained from treated cells were analyzed for FOXM1 protein levels via immunoblotting; β-actin was used as an internal loading control. […] Slides were scanned on an Aperio AT2 brightfield scanner and images were analyzed using HALO 2.0 software. […]
In addition, primary AML samples (n=4) were treated ex vivo with STL001 and slides were scanned on an Aperio AT2 brightfield scanner and images were analyzed using HALO 2.0 software. The % of nuclei staining positive for FOXM1 was calculated per cell and averaged per slide to analyze FOXM1 protein expression and localization. […]

FOXM1 [2] = target: T1, FOXM1; experiment: FOXM1 protein levels by immunoblotting in leukemia/AML cell lines; type: cell-based; parameters: Total protein samples obtain from treated cells were analyzed for FOXM1 protein levels via immunoblotting; endogenous in cells; host or cells: KG-1, HL-60, K562, THP-1 leukemia cell lines
Experimental: [a] Leukemia cells, KG-1, HL-60 and K562 were treated with increasing concentrations of STL427944 for 24 hrs. […] [b] THP1 and KG-1 cells were treated with indicated concentrations of venetoclax and STL427944 alone or in combination for 24 hrs. [c] KG-1 and K562 cells were treated with indicated concentrations of cytarabine and STL427944 alone or in combination for 24 hrs.
FIG. 8. STL427944 treatment of human leukemia cell lines suppress FOXM1 protein expression. (a) STL427944 treatment of human leukemia cell lines inhibit FOXM1 protein expression and sensitize cells to venetoclax treatment. […] (b) Stable shRNA-mediated FOXM1 knockdown prominently sensitizes KG-1 cells to cytotoxic effect of venetoclax. (c, d) combined treatment with STL427944 and venetoclax suppresses FOXM1 in KG-1 and THP-1 cells and synergistically promotes cytotoxic effects similarly to FOXM1 knockdown. Total protein was isolated from cells immediately after the treatment and analyzed via immunoblotting with FOXM1 antibodies). Apoptosis induction was estimated based on caspase-3 cleavage.
FIGS. 9A and 9B: Novel FOXM1 inhibitor STL001 sensitizes Leukemia cells to chemotherapy agents. [a] Structural formula of novel FOXM1 inhibitor STL001. [b] Leukemia cells, KG-1, HL-60, and K562 were treated with increasing concentrations of STL001 for 24 hrs. […] [c] KG-1 cells were treated with indicated concentrations of Laptomycin B, Chloroquine, and STL001 for 24 hrs. […] [d] KG-1, HL-60, and K562 cells were treated with indicated concentrations of venetoclax and STL001 alone or in combination for 24 hrs. [e] KG-1, HL-60, and K562 cells were treated with indicated concentrations of cytarabine and STL alone or in combination for 24 hrs.
FIGS. 13A-13H STL001 is a novel FOXM1 inhibitor that sensitizes leukemia cells to standard cytotoxic and bcl2 inhibitor therapies. FIG. 13A AML cell line KG-1 treated with precursor compound STL427944. FIG. 3B AML cell lines KG-1, HL-60, and K562 were treated with increasing concentrations of STL001 for 24 h. Total protein samples obtained from treated cells were analyzed for FOXM1 protein levels using immunoblotting; β-actin was used as the internal loading control. FIG. 13C KG-1, HL-60, and K562 cells were treated with indicated concentrations of venetoclax and STL001 alone or in combination for 24 h. FIG. 13D KG-1, HL-60, and K562 cells were treated with indicated concentrations of cytarabine and STL001 alone or in combination for 24 h. […] FIG. 13E KG-1 cells were treated with indicated concentrations of Leptomycin B, Chloroquine, and STL001 for 24 h. Total protein samples obtained from treated cells were analyzed for FOXM1 protein levels via immunoblotting; β-actin was used as an internal loading control. FIG. 13F KG-1 cell lines with shRNA knockdown of FOXM1 were treated with venetoclax and STL001 and compared to parental cells. FIG. 13G Real-time PCR-based expression profiling for canonical FOXM1 target genes was performed on primary AML mononuclear cells (n=5) treated ex vivo with STL001 5 μM for 24 h. Mean and standard error of the delta Ct for DMSO or treatment group are plotted for each gene. P-value is estimated by two-tailed paired t-test. Asterisks denote P<0.05. FIG. 13H Treatment of peripheral blood mononuclear cells with STL001 for 24 h followed by immunohistochemistry for FOXM1. Slides were scanned on an Aperio AT2 brightfield scanner and images were analyzed using HALO 2.0 software. Hematoxylin counterstain was used to segment nuclei within the ROIs and to establish an accurate cell count. Percent cells with nuclear FOXM1 expression compared between DMSO and STL001 treated cells. P-value is based on one-tailed paired t-test.

O=C(Oc1cccc(-c2ccn(-c3nc(Nc4ccccc4)nc(N4CCOCC4)n3)n2)c1)c1ccco1 [STL001]
% of nuclei expressing FOXM1 after treatment (FOXM1 [1]): 29%
concentration suppressing FOXM1 (FOXM1 [2]; AML cell lines): 0.5 µM
FOXM1 localization (FOXM1 [2]; AML cells): localizes FOXM1 to the cytoplasm
lowest concentration with dose-dependent inhibition of FOXM1 protein expression (FOXM1 [2]; KG-1, HL-60, K562, 24 h): 500 nM
improvement in efficiency to suppress FOXM1 / increased potency as FOXM1 inhibitor versus STL427944 (FOXM1 [2]; estimated, relative to STL427944): up to 50 fold
FOXM1 protein levels (FOXM1 [2]; leukemia cell lines, increasing concentrations, 24 h): dose-dependent inhibition of FOXM1 protein expression
